One experiment has as its target T1, E. coli K12 PBP3 (Escherichia coli, UniProt P0AD68).
T1 construct: made in house
The experiment in a line: biochemical. It is filed as binding. The method, boiled down: (§1)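 Fluorescence polarization (ex 490/em 520 nm) competition of inhibitors against Bocillin-FL at 0.1 μM, read up to 60 min. Final PBP levels: E. coli PBP3 1.5 μM; A. baumannii PBP2 2.5 μM, PBP3 0.2 μM in Tris pH 8.0/NaCl/glycerol/Tween 20; N. gonorrhoeae PBP2 […] in Hepes pH 8.0/NaCl/glycerol. EC50 = concentration halving PBP-bound Bocillin-FL.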

A further experiment deals with N. gonorrhoeae FA1090. As to the kind of experiment: Liquid broth MIC in Fastidious broth. It is filed as cell-based. To be noted: Neisseria gonorrhoeae; N. gonorrhoeae strain FA1090; Fastidious broth; read-out: Minimum Inhibitory Concentration, N. gonorrhoeae FA1090. The procedure, abridged:
(§2)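 Colonies were swabbed from chocolate agar after 24 h growth and standardised by optical density at 600 nm. Compounds were serially diluted twofold in Fastidious broth, and bacteria added to give 5×10^5 CFU/mL. After about 24 h at 36 °C in 5% CO2, the lowest concentration allowing under 10% growth was taken as MIC.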

The subject of the next experiment is N. gonorrhoeae WHO G. As to the kind of experiment: Liquid broth MIC in Fastidious broth. Format: cell-based. To be noted: Neisseria gonorrhoeae; N. gonorrhoeae strain WHO G; Fastidious broth; read-out: Minimum Inhibitory Concentration, N. gonorrhoeae WHO G. The method, boiled down:
as §2

Experiment [1] concerns N. gonorrhoeae ATCC 49226. As to the kind of experiment: Liquid broth MIC in Fastidious broth. Format: cell-based. As to conditions: Neisseria gonorrhoeae, ATCC49226; N. gonorrhoeae strain ATCC 49226; Fastidious broth; read-out: Minimum Inhibitory Concentration, N. gonorrhoeae ATCC 49226. The procedure, abridged:
as §2

For the next experiment, the system named is N. gonorrhoeae H041. As to the kind of experiment: Liquid broth MIC in Fastidious broth. To be noted: Neisseria gonorrhoeae, H041, read-out: Minimum Inhibitory Concentration, N. gonorrhoeae H041. It is filed as cell-based. The method, boiled down: (§3)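 MIC = lowest concentration giving <10% growth relative to untreated wells, scored by eye after ~24 h at 36 °C, 5% CO2. Strains carry mosaic PBP2; inoculum 5×10^5 CFU/mL in Fastidious broth with 2-fold serial compound dilutions.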

Another experiment has as its system N. gonorrhoeae WHO Z. As to the kind of experiment: Liquid broth MIC in Fastidious broth. It is filed as cell-based. To be noted: Neisseria gonorrhoeae, read-out: Minimum Inhibitory Concentration, N. gonorrhoeae WHO Z. The procedure, abridged: as §3
A further experiment relates to N. gonorrhoeae WHO K. The experiment in a line: Liquid broth MIC in Fastidious broth. It is filed as cell-based. As to conditions: Neisseria gonorrhoeae, read-out: Minimum Inhibitory Concentration, N. gonorrhoeae WHO K. The method, boiled down: as §3
The subject of another experiment is N. gonorrhoeae WHO Q. As to the kind of experiment: Liquid broth MIC in Fastidious broth. Format: cell-based. To be noted: Neisseria gonorrhoeae, read-out: Minimum Inhibitory Concentration, N. gonorrhoeae WHO Q. The procedure, abridged: as §3
For the next experiment, the target named is T2, N. gonorrhoeae PBP2 (Neisseria gonorrhoeae, UniProt P08149).
T2 construct: made in house
T2 sequence (P08149 whole entry): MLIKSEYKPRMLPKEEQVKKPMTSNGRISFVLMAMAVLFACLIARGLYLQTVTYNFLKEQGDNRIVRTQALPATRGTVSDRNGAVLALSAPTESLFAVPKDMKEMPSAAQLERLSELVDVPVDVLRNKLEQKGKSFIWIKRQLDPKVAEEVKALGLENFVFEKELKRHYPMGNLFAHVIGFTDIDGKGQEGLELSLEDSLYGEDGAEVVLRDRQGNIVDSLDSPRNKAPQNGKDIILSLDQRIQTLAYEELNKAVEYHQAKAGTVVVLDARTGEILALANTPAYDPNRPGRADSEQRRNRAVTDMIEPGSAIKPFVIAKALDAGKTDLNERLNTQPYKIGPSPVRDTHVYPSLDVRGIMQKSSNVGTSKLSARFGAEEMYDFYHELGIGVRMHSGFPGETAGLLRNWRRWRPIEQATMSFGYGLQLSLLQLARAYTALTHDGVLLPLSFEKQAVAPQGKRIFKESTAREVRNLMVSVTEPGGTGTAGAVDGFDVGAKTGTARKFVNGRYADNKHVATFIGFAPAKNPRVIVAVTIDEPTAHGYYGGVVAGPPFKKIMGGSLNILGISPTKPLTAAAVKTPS
The experiment in a line: Bocillin-FL fluorescence polarization competition binding assay, N. gonorrhoeae PBP2. As to conditions: fluorescence polarization competition binding assay using Bocillin-FL; read-out: N. gonorrhoeae PBP2 Potency. The procedure, abridged: as §1

For the next experiment, the target named is T3, P. aeruginosa PBP3 (Pseudomonas aeruginosa, UniProt G3XD46).
T3 construct: made in house
T3 sequence (G3XD46 whole entry): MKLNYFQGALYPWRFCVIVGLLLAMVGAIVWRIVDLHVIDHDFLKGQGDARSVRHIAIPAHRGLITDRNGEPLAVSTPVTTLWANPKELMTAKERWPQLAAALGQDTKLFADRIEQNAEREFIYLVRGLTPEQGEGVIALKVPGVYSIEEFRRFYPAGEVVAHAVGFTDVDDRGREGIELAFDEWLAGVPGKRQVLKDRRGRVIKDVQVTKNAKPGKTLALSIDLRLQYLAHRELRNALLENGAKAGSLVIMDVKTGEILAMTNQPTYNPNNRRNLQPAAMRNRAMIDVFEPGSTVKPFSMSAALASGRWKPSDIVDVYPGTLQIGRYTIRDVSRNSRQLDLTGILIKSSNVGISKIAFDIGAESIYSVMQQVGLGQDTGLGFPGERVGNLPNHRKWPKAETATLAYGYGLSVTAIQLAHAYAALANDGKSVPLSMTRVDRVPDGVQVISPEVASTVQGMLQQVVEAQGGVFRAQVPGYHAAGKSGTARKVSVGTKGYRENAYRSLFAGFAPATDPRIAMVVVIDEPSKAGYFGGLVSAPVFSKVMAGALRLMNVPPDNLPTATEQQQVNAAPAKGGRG
As to the kind of experiment: Bocillin-FL fluorescence polarization competition binding assay, P. aeruginosa PBP3. To be noted: fluorescence polarization competition binding assay using Bocillin-FL. The method, boiled down: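 Binding of boronic acid inhibitors to purified Pseudomonas aeruginosa (PA01) PBP3 was measured by fluorescence polarization competition with Bocillin-FL, a fluorescent penicillin V. Reactions of 80 μl contained 0.75 μM PBP3 and 0.1 μM Bocillin-FL in 50 mM Hepes (pH 8.0), 300 mM NaCl and 5% (v/v) glycerol, in black 384-well plates. FP (Excitation 490 nm, Emission 520 nm) was read for up to 60 minutes. EC50 is the concentration that halves PBP-bound Bocillin-FL.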
On the technique in general: Polarisation of emitted light reports the rotation of a fluorescent probe.

pEC50: −log10 of the molar value. ≈ marks a conversion by molar mass, not a printed value.

T1 sequence (P0AD68 1-577): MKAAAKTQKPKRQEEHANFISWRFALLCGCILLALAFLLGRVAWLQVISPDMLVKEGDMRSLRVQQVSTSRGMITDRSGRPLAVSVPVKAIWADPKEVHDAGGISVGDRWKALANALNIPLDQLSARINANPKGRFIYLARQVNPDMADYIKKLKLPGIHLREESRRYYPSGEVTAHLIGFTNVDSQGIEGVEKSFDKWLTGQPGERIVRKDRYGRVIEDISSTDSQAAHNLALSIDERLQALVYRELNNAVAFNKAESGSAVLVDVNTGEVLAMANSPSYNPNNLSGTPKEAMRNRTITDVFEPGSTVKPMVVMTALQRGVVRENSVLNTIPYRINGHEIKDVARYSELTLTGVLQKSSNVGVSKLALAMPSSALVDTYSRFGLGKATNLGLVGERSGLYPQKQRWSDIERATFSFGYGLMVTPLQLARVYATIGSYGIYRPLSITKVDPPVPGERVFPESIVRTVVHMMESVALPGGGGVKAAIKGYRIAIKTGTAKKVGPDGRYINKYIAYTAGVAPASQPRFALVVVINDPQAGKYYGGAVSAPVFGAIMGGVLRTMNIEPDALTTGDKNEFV

On to `CCN1CCN(C(=O)NC(C(=O)N[C@H]2Cc3cccc(C(=O)O)c3OB2O)c2c(F)c(F)c(O)c(F)c2F)C(=O)C1=O` (stereo partly drawn) [Example 175, (3R)-3-(2-(4-ethyl-2,3-dioxopiperazine-1-carboxamido)-2-(2,3,5,6-tetrafluoro-4-hydroxyphenyl)acetamido)-2-hydroxy-3,4-dihydro-2H-benzo[e][1,2]oxaborinine-8-carboxylic acid], for which the pEC50 was more than 4.52 at E. coli K12 PBP3 and more than 5.00 on N. gonorrhoeae PBP2. The MIC in the experiment on N. gonorrhoeae FA1090 was less than 0.125 µg/mL; with N. gonorrhoeae WHO G, 0.25 to 0.5 µg/mL (≈ 0.419 to 0.839 µM); in [1] it was 1 to 2 µg/mL (≈ 1.68 to 3.35 µM); with N. gonorrhoeae H041, 4 to 8 µg/mL (≈ 6.71 to 13.4 µM); in the experiment with N. gonorrhoeae WHO Z it was 1 to 2 µg/mL (≈ 1.68 to 3.35 µM); in the experiment with N. gonorrhoeae WHO K it was 1 to 2 µg/mL (≈ 1.68 to 3.35 µM). Also, the MIC in the experiment with N. gonorrhoeae WHO Q lay within 1 to 2 µg/mL (≈ 1.68 to 3.35 µM). Also, the “P. aeruginosa PBP3 Potency” value at P. aeruginosa PBP3 was “D (D represents a potency <10 μM)”.
As for `CCN1CCN(C(=O)NC(C(=O)N[C@H]2Cc3cccc(C(=O)O)c3OB2O)c2c(F)cc(NS(N)(=O)=O)cc2F)C(=O)C1=O` (stereo partly drawn) [Example 176, (3R)-3-(2-(2,6-difluoro-4-(sulfamoylamino)phenyl)-2-(4-ethyl-2,3-dioxopiperazine-1-carboxamido)acetamido)-2-hydroxy-3,4-dihydro-2H-benzo[e][1,2]oxaborinine-8-carboxylic acid], the results for the pEC50 on E. coli K12 PBP3 and on N. gonorrhoeae PBP2 were more than 4.52 and more than 5.00, respectively. Further, the MIC in the experiment with N. gonorrhoeae FA1090 was 0.25 to 0.5 µg/mL (≈ 0.392 to 0.783 µM); with N. gonorrhoeae WHO G, 4 to 8 µg/mL (≈ 6.27 to 12.5 µM); in experiment [1], 4 to 8 µg/mL (≈ 6.27 to 12.5 µM); with N. gonorrhoeae H041 it was more than 64 µg/mL; in the experiment on N. gonorrhoeae WHO Z it was 16 to 32 µg/mL (≈ 25.1 to 50.1 µM); with N. gonorrhoeae WHO K, more than 64 µg/mL. Also, the MIC in the experiment with N. gonorrhoeae WHO Q was more than 64 µg/mL. For the same molecule, the “P. aeruginosa PBP3 Potency” value on P. aeruginosa PBP3 is listed as “D (D represents a potency <10 μM)”.
In the case of `NCCN1CCN(C(=O)NC(C(=O)N[C@H]2Cc3cccc(C(=O)O)c3OB2O)c2c(F)cc(NS(N)(=O)=O)cc2F)C(=O)C1=O` (stereo partly drawn) [Example 177, (3R)-3-(2-(4-(2-aminoethyl)-2,3-dioxopiperazine-1-carboxamido)-2-(2,6-difluoro-4-(sulfamoylamino)phenyl)acetamido)-2-hydroxy-3,4-dihydro-2H-benzo[e][1,2]oxaborinine-8-carboxylic acid], the values for the pEC50 at E. coli K12 PBP3 and at N. gonorrhoeae PBP2 were 3.30 to 4.52 and 4.52 to 5.00, respectively. For the same molecule, the MIC is 4 to 8 µg/mL (≈ 6.12 to 12.2 µM) in the experiment on N. gonorrhoeae FA1090; 16 to 32 µg/mL (≈ 24.5 to 49 µM) in the experiment on N. gonorrhoeae WHO G; more than 64 µg/mL in experiment [1]; more than 64 µg/mL in the experiment on N. gonorrhoeae H041; more than 64 µg/mL with N. gonorrhoeae WHO Z; more than 64 µg/mL in the experiment with N. gonorrhoeae WHO K. Also, the MIC in the experiment on N. gonorrhoeae WHO Q is more than 64 µg/mL. Besides, at P. aeruginosa PBP3, the “P. aeruginosa PBP3 Potency” value is listed as “D (D represents a potency <10 μM)”.
For the molecule `NCCCN1CCN(C(=O)NC(C(=O)N[C@H]2Cc3ccc(F)c(C(=O)O)c3OB2O)c2c(F)cc(O)cc2F)C(=O)C1=O` (stereo partly drawn) [Example 178, (3R)-3-(2-(4-(3-aminopropyl)-2,3-dioxopiperazine-1-carboxamido)-2-(2,6-difluoro-4-hydroxyphenyl)acetamido)-7-fluoro-2-hydroxy-3,4-dihydro-2H-benzo[e][1,2]oxaborinine-8-carboxylic acid], the pEC50 at E. coli K12 PBP3 was more than 4.52; on N. gonorrhoeae PBP2 it was less than 4.00. For the same molecule, the MIC with N. gonorrhoeae FA1090 was 4 to 8 µg/mL (≈ 6.59 to 13.2 µM); with N. gonorrhoeae WHO G, 16 to 32 µg/mL (≈ 26.3 to 52.7 µM); in experiment [1], 16 to 32 µg/mL (≈ 26.3 to 52.7 µM); with N. gonorrhoeae H041, more than 64 µg/mL; in the experiment with N. gonorrhoeae WHO Z, more than 64 µg/mL; in the experiment with N. gonorrhoeae WHO K, more than 64 µg/mL. Further, the MIC in the experiment with N. gonorrhoeae WHO Q was more than 64 µg/mL. Besides, the “P. aeruginosa PBP3 Potency” value at P. aeruginosa PBP3 was “D (D represents a potency <10 μM)”.

Source of the values: patent US20230114728A1 (Venatorx Pharmaceuticals, Inc., priority 2019, published 2023).
